Patent US7211594B2, “Indazole compounds and compositions thereof as JNK inhibitors and for the treatment of diseases associated therewith” (Signal Pharmaceuticals, LLC, priority 2000, dated 2007)

Compound	melting point
O=[N+]([O-])c1cccc(-c2n[nH]c3ccc([N+](=O)[O-])cc23)c1	249 to 251 °C
COc1ccc(-c2n[nH]c3ccc(N)cc23)cc1OC.O=C(O)C(F)(F)F	150 °C (dec.)
COc1ccccc1-c1n[nH]c2ccccc12 [Example 3, 3-(2-Methoxyphenyl)-1H-indazole]	99 °C
Fc1ccc(-c2n[nH]c3ccccc23)cc1 [Example 4, 3-(4-Fluorophenyl)-1H-indazole]	126 °C
FC(F)(F)c1ccc2[nH]nc(-c3ccccc3)c2c1 [Example 5, 3-Phenyl-5-trifluoromethyl-1H-indazole]	152 °C
Fc1ccc2[nH]nc(-c3ccccc3)c2c1 [Example 6, 5-Fluoro-3-phenyl-1H-indazole]	124 to 125 °C
O=[N+]([O-])c1ccc2[nH]nc(-c3ccccc3)c2c1 [Example 7, 5-Nitro-3-phenyl-1H-indazole]	185 to 186 °C
Nc1ccc2[nH]nc(-c3ccccc3)c2c1 [Example 8, 5-Amino-3-phenyl-1H-indazole]	104 °C
COc1ccc(-c2n[nH]c3ccc([N+](=O)[O-])cc23)cc1 [Example 21, 3-(4-Methoxyphenyl)-5-nitro-1H-indazole]	153 °C
COc1ccc(-c2n[nH]c3ccc([N+](=O)[O-])cc23)cc1OC [Example 23, 3-(3,4-Dimethoxyphenyl)-5-nitro-1H-indazole]	172 to 173 °C
COc1ccc(-c2n[nH]c3ccc(N)cc23)cc1.Cl [Example 34, 5-Amino-3-(4-methoxyphenyl)-1H-indazole Hydrochloride]	240 °C (dec.)
